Data reported in PubChem BioAssay (NCI).
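Briefly, cells in 96-well plates were exposed to five compound concentrations for 48 h, and endpoints were estimated by linear interpolation. TGI: total growth inhibition.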

Legend:
Assay in all cases: growth of human tumour cells (NCI), 48 h
[1] = system: RXF 393 renal
[2] = system: HCT-15 colon
[3] = system: MALME-3M melanoma
[4] = system: SR leukemia
[5] = system: HCT-116 colon
[6] = system: HOP-92 NSCLC
[7] = system: A549 NSCLC
[8] = system: U251 CNS
[9] = system: CAKI-1 renal
[10] = system: A498 renal
[11] = system: UO-31 renal
[12] = system: MDA-MB-435
[13] = system: SK-MEL-28 melanoma
[14] = system: NCI/ADR-RES ovarian
[15] = system: HCC-2998 colon
[16] = system: LOX IMVI melanoma
[17] = system: PC-3 prostate
[18] = system: BT-549 breast
[19] = system: OVCAR-4 ovarian
[20] = system: K-562 leukemia
[21] = system: UACC-62 melanoma
[22] = system: NCI-H23 lung
[23] = system: SW-620 colon
[24] = system: SNB-75 CNS
[25] = system: OVCAR-8 ovarian
[26] = system: NCI-H522 lung
[27] = system: SK-MEL-5 melanoma
[28] = system: KM12 colon
[29] = system: NCI-H460 lung
[30] = system: CCRF-CEM leukemia
[31] = system: DU-145 prostate
[32] = system: SF-268 CNS
[33] = system: SNB-19 CNS
[34] = system: M14 melanoma
[35] = system: 786-0 renal
[36] = system: SF-295 CNS
[37] = system: SK-MEL-2 melanoma
[38] = system: NCI-H226 lung
[39] = system: MOLT-4 leukemia
[40] = system: HS 578T breast
[41] = system: SF-539 CNS
[42] = system: RPMI-8226 leukemia
[43] = system: TK-10 renal
[44] = system: UACC-257 melanoma
[45] = system: IGROV1 ovarian
[46] = system: MDA-N
[47] = system: HT29 colon
[48] = system: ACHN renal
[49] = system: OVCAR-3 ovarian
[50] = system: HL-60(TB) leukemia
[51] = system: MCF7 breast
[52] = system: T-47D breast
[53] = system: SK-OV-3 ovarian
[54] = system: HOP-62 NSCLC
[55] = system: MDA-MB-231 breast
[56] = system: OVCAR-5 ovarian
[57] = system: SN12C renal
[58] = system: COLO 205 colon
[59] = system: EKVX NSCLC
[60] = system: DMS 114 small cell lung
[61] = system: LXFL 529 NSCLC
[62] = system: M19-MEL melanoma
[63] = system: KM20L2 colon

`O=C1C=CC(=O)c2c1ccc1c3ccccc3n(Cc3cccc([N+](=O)[O-])c3)c21` was tested, and the TGI [1] was 39.2 µM, the TGI [2] was 50.2 µM and the TGI [3] was 40 µM. The TGI [4] was greater than 32.6 µM, the TGI [5] was greater than 62.7 µM and the TGI [6] was 43.7 µM. It also gave a TGI [7] greater than 100 µM, a TGI [8] greater than 100 µM and a TGI [9] of 31 µM. The TGI [10] was greater than 100 µM, the TGI [11] was greater than 100 µM and the TGI [12] was greater than 65.2 µM. For the same compound, the TGI [13] was greater than 60.4 µM, the TGI [14] was greater than 90.3 µM and the TGI [15] was greater than 100 µM. The TGI [16] was greater than 100 µM, the TGI [17] was greater than 69 µM and the TGI [18] was greater than 69.7 µM. The TGI [19] was greater than 63.8 µM, the TGI [20] was greater than 59.9 µM and the TGI [21] was greater than 78.6 µM. For the same compound, the TGI [22] was 50.4 µM, the TGI [23] was 32.4 µM and the TGI [24] was greater than 100 µM. For the same compound, the TGI [25] was greater than 100 µM, the TGI [26] was 37.2 µM and the TGI [27] was greater than 100 µM. It also gave a TGI [28] greater than 100 µM, a TGI [29] greater than 100 µM and a TGI [30] of 23 µM. The TGI [31] was greater than 100 µM, the TGI [32] was greater than 100 µM and the TGI [33] was greater than 100 µM. It also gave a TGI [34] of 71.7 µM, a TGI [35] greater than 61.4 µM and a TGI [36] greater than 100 µM. The TGI [37] was greater than 100 µM, the TGI [38] was greater than 100 µM and the TGI [39] was 37.7 µM. It also gave a TGI [40] greater than 100 µM, a TGI [41] greater than 80.6 µM and a TGI [42] greater than 55.8 µM. The TGI [43] was 44.8 µM, the TGI [44] was 60.1 µM and the TGI [45] was 54.7 µM. For the same compound, the TGI [46] was 26.3 µM, the TGI [47] was greater than 73.1 µM and the TGI [48] was 38 µM. The TGI [49] was 34.6 µM, the TGI [50] was 15.3 µM and the TGI [51] was 65.6 µM. The TGI [52] was 67.7 µM, the TGI [53] was greater than 100 µM and the TGI [54] was greater than 100 µM. The TGI [55] was 61.1 µM, the TGI [56] was greater than 100 µM and the TGI [57] was 49.1 µM. For the same compound, the TGI [58] was 21.2 µM and the TGI [59] was greater than 100 µM.
`O=C1C(Cl)N(c2cccc([N+](=O)[O-])c2)C1c1c[nH]c2ccccc12` (centres undefined) gave a TGI [1] of 27 µM, a TGI [3] of 14.1 µM and a TGI [4] of 57 µM. The TGI [5] was 44.6 µM, the TGI [6] was 47.9 µM and the TGI [7] was 56.3 µM. The TGI [8] was 56.6 µM, the TGI [60] was 47 µM and the TGI [11] was 47.9 µM. The TGI [13] was 73.5 µM, the TGI [19] was 33.7 µM and the TGI [20] was 64.1 µM. It also gave a TGI [21] of 32.4 µM, a TGI [22] of 85.9 µM and a TGI [23] greater than 100 µM. It also gave a TGI [24] of 47.2 µM, a TGI [25] of 60.4 µM and a TGI [26] of 48.7 µM. For the same compound, the TGI [27] was 34.5 µM, the TGI [28] was 49.7 µM and the TGI [61] was 20.4 µM. It also gave a TGI [29] of 35.4 µM, a TGI [30] of 65.7 µM and a TGI [32] greater than 100 µM. For the same compound, the TGI [33] was 57.8 µM, the TGI [34] was 33 µM and the TGI [36] was 35.1 µM. It also gave a TGI [37] of 27.5 µM, a TGI [39] greater than 100 µM and a TGI [62] of 42.5 µM. For the same compound, the TGI [63] was 53.6 µM, the TGI [41] was 40.7 µM and the TGI [42] was 52.2 µM. It also gave a TGI [43] of 59.4 µM, a TGI [44] of 49 µM and a TGI [45] of 69.8 µM. It also gave a TGI [47] of 43.7 µM, a TGI [49] of 54.8 µM and a TGI [50] greater than 100 µM. It also gave a TGI [53] of 38 µM, a TGI [54] of 33.6 µM and a TGI [56] of 37.4 µM. For the same compound, the TGI [57] was greater than 100 µM, the TGI [58] was 41.8 µM and the TGI [59] was 96.8 µM.
